# Results: patent US8178525B2 (priority 2008, dated 2012)
# Structures can show the parent of a compound that is named as a salt. Where two headings read alike, the source gives them in different places. Marks after values point to notes of the source that are not given here.
# Legend:
# physchem = type: physicochemical
# From the text: Rivaroxaban represented by formula A was used as the comparison drug.
# rat tail bleeding time = assay: Bleeding time (BT) in rat tail bleeding model; type: in vivo; conditions: for Prolongation of bleeding time (X-fold): rat tail, po
# Description: Fasted, male Sprague-Dawley rats, weighed 200-240 g and aged approximately 7 weeks, were anesthetized by intraperitoneal injection of pentobarbital-Na (60 mg/kg). The FXa inhibitors or vehicle was given orally 60 min before the tails of anesthetized rats were transected 2 mm from the tip and vertically immersed in saline at 37° C. The time until continuous blood flow ceased for >30 s was measured, with a maximum observation time of 30 min (longer bleeding time were assigned a value of 30 min).
# [1] = tested on: Citrated human and rat plasma; assay: Prothrombin time (PT), method using coagulometer; type: biochemical; conditions: concentration required to double the plasma clotting times, plasma species not given
# Description: (§1) Effect of the oxazolidinone derivatives with cyclic amidoxime or cyclic amidrazone group represented by formula I of the present invention on blood coagulation was investigated by measuring prothrombin time (PT).
# a) Method using coagulometer: Prothrombin time (PT) was measured with a Thrombotimer 4-channel coagulometer (Behnk Elektronik, Germany). Citrated human and rat plasma were used in the assays. For the PT measurement, 100 uL of freshly thawed plasma was mixed with 3 uL of serial dilution of test compound or DMSO. After 5 min incubation at 37° C., 200 uL of STA-Neoplastine (Diagnostica Stago, France) was added to start clot formation. Anticoagulant activity of the compounds was defined as the concentration required to double the plasma clotting times [2×PT (uM)]. Human plasma was obtained from Daejeon Red Cross Blood Center. […] Blood was collected into plastic tubes containing 1/10 volume of 3.8% sodium citrate. Plasma was obtained by immediate centrifugation at 2500 g for 10 min at 4° C., and stored at −70° C.
# [2] = tested on: thrombus formation in rat AV-shunt; assay: Antithrombotic effect in arteriovenous shunt (AV-shunt) model in rats; type: in vivo; conditions: oral 60 min before shunt, dose not given
# Description: Antithrombotic effect of the oxazolidinone derivatives with cyclic amidoxime or cyclic amidrazone group represented by formula I of the present invention was evaluated using arteriovenous (AV) shunt in rats. Fasted, male Sprague-Dawley rats, weighed 200-240 g and aged approximately 7 weeks, were anesthetized by intraperitoneal injection of urethane (1.25 g/kg) or chloral hydrate. An arteriovenous (AV) shunt in anesthetized rats was performed as described previously, with minor modification [Journal of Thrombosis and Haemostasis (2004) 3, 514]. The left common carotid artery and the right jugular vein were cannulated with two 200-mm-long, saline filled tubes (PE-50, Becton Dickinson, USA). The polyethylene tubes were connected through 8-mm-long silicone tubing (L/S® 13, MasterFlex, USA) with a 50-mm-long silicone tube (L/S® 16, MasterFlex, USA) containing a […]. The compound or vehicle was given orally 60 min before shunt was opened for 15 min. The cotton thread was then withdrawn and weighed. ED50 values were calculated by linear regression analysis using Excel 2003 (Microsoft®.
# human FXa = biological target: T1, human FXa (Homo sapiens, UniProt P00742); assay: Inhibitory activity against purified human FXa, chromogenic substrate S-2765; type: biochemical
# T1 construct: purchased Enzyme Research Laboratories
# Description: Human FXa was purchased from Enzyme Research Laboratories. 96-well microplate was purchased from Corning Life Sciences.
# Inhibitory activity of the oxazolidinone derivatives with cyclic amidoxime or cyclic amidrazone group represented by formula I of the present invention against FXa was measured as follow.
# The reaction was initiated by the addition of the substrate, and the absorbance was monitored continuously at 405 nm for 5 min using SpectraMax 190 (Molecular Devices, USA). The inhibitory constant (Ki) against human FXa was calculated according to the Cheng-Prusoff equation (Ki=IC50/1+[S]/Km), where [S] is the substrate concentration, and Km is the MichalisMenten constant. Km was determined from a Lineweaver-Burk plot. […] IC50 values were calculated using GraFit software version 5.0.12 (Erithacus Software Ltd., UK).
# citrated plasma = assay: Prothrombin time (PT), method using spectramax; type: biochemical, human and rat; conditions: concentration required to double the plasma clotting times, absorbance 340 nm, plasma species not given
# Description: as §1
# b) Method using spectramax: The compound solution of serial dilution (5 uL) according to the present invention was mixed with citrated plasma (45 uL) followed by addition of STA-Neoplastine (Diagnostica Stago, France) after 5 min at 37° C. Absorbance at 340 nm was continuously monitored and the PT was determined as time (in seconds) when the absorbance at 340 nm reached 0.1. Anticoagulant activity of the compounds was defined as the concentration required to double the plasma clotting times [2×PT (uM)]. Human plasma was obtained from Daejeon Red Cross Blood Center. […] Blood was collected into plastic tubes containing 1/10 volume of 3.8% sodium citrate. Plasma was obtained by immediate centrifugation at 2500 g for 10 min at 4° C., and stored at −70° C.
# [3] = asterisked values (chloral hydrate anesthetic)
# [4] = values without asterisk (urethane anesthetic)
# [5] = purified human FXa 2.6 nM, S-2765 300 uM, pH 7.8, 37° C., Cheng-Prusoff, Km 125 μM, read-out: Ki (nM), inhibition constant against human FXa
# T1 sequence (P00742 235-488 limits assumed): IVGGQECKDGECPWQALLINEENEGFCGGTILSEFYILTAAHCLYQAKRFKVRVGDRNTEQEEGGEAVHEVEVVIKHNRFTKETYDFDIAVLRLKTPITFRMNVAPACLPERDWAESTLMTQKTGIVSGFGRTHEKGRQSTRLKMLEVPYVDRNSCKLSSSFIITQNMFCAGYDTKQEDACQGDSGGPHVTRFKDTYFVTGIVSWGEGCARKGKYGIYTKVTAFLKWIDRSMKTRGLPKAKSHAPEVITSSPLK
# T1 sequence (P00742 41-179 partner limits assumed): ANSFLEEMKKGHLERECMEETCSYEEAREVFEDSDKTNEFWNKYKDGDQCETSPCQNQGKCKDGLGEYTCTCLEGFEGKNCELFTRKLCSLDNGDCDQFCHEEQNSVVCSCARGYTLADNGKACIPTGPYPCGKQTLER
smiles,measurement,setting,value
CN1CCON=C1c1ccc(N2C[C@H](CNC(=O)c3ccc(Cl)s3)OC2=O)cc1 [100 (HCl salt)],solubility,"physchem; water, read-out: Aqueous Solubility",12 mM
same,Prolongation of bleeding time (X-fold),rat tail bleeding time; dose 5 mg/kg,1.2 X-fold
same,Prolongation of bleeding time (X-fold),rat tail bleeding time; dose 10 mg/kg,0.9 X-fold
CN1CCON=C1c1ccc(N2C[C@H](CNC(=O)c3ccc(Cl)s3)OC2=O)cc1 [100 (MSA salt)],Aqueous Solubility,physchem,>20 mM
same,Prolongation of bleeding time (X-fold),rat tail bleeding time; dose 5 mg/kg,1.1 X-fold
same,Prolongation of bleeding time (X-fold),rat tail bleeding time; dose 10 mg/kg,1.8 X-fold
same,Prolongation of bleeding time (X-fold),rat tail bleeding time; dose 20 mg/kg,5.1 X-fold
O=C(NC[C@H]1CN(c2ccc(N3CCNC=N3)cc2)C(=O)O1)c1ccc(Cl)s1 [109 (MSA salt)],Aqueous Solubility,physchem,>20 mM
same,Prolongation of bleeding time (X-fold),rat tail bleeding time; dose 2.5 mg/kg,2.1 X-fold
same,Prolongation of bleeding time (X-fold),rat tail bleeding time; dose 5 mg/kg,3.8 X-fold
same,Prolongation of bleeding time (X-fold),rat tail bleeding time; dose 10 mg/kg,5.7 X-fold
CN1CCON=C1c1ccc(N2C[C@H](CNC(=O)c3ccc(Cl)s3)OC2=O)cc1 [Compound 100],2xPT (uM) Coagulometer,[1],0.69 ± 0.07 µM
same,Inhibition of thrombus formation (%),[2]; [3],58%
same,Inhibition of thrombus formation (%),[2]; [4],65%
same,Ki,human FXa,7.11 nM
same,prolongation of bleeding time compared to the vehicle control,"rat tail bleeding time; rat tail bleeding model, 10 mg/kg",did not prolonged bleeding time
same,Prolongation of bleeding time (X-fold),rat tail bleeding time; dose 5 mg/kg,0.9 X-fold
same,2xPT (uM) Spectramax,citrated plasma,0.25 µM
O=C(NC[C@H]1CN(c2ccc(C3=NOCCN3)cc2)C(=O)O1)c1ccc(Cl)s1 [Compound 101],Inhibition of thrombus formation (%),[2]; [4],45%
same,Ki,human FXa,110 nM
same,2xPT (uM) Spectramax,citrated plasma,1.39 µM
CCN1CCON=C1c1ccc(N2C[C@H](CNC(=O)c3ccc(Cl)s3)OC2=O)cc1 [Compound 102],2xPT (uM) Coagulometer,[1],1.76 µM
same,Inhibition of thrombus formation (%),[2]; [4],61%
same,Ki,human FXa,8.91 nM
same,2xPT (uM) Spectramax,citrated plasma,0.77 µM
O=C(NC[C@H]1CN(c2ccc(C3=NOCCN3C3CC3)cc2)C(=O)O1)c1ccc(Cl)s1 [Compound 103],Inhibition of thrombus formation (%),[2]; [4],24%
same,Ki,human FXa,53.3 nM
same,2xPT (uM) Spectramax,citrated plasma,1.10 µM
CN1OCCN=C1c1ccc(N2C[C@H](CNC(=O)c3ccc(Cl)s3)OC2=O)cc1 [Compound 104],Inhibition of thrombus formation (%),[2]; [4],21%
same,Ki,human FXa; [5],10 nM
same,2xPT (uM) Spectramax,citrated plasma,0.05 µM
CCN1OCCN=C1c1ccc(N2C[C@H](CNC(=O)c3ccc(Cl)s3)OC2=O)cc1 [Compound 105],2xPT (uM) Coagulometer,[1],0.16 µM
same,Inhibition of thrombus formation (%),[2]; [4],80%
same,Ki,human FXa; [5],3.62 nM
same,2xPT (uM) Spectramax,citrated plasma,0.04 µM
CCN1CCN(C)N=C1c1ccc(N2C[C@H](CNC(=O)c3ccc(Cl)s3)OC2=O)cc1 [Compound 106],Ki,human FXa,> 30 nM
same,2xPT (uM) Spectramax,citrated plasma,0.33 µM
O=C(NC[C@H]1CN(c2ccc(C3=NCCN4C(=O)CCN34)cc2)C(=O)O1)c1ccc(Cl)s1 [Compound 108],2xPT (uM) Coagulometer,[1],1.00 µM
same,Inhibition of thrombus formation (%),[2]; [4],52%
same,Ki,human FXa,15.8 nM
same,2xPT (uM) Spectramax,citrated plasma,0.35 µM
O=C(NC[C@H]1CN(c2ccc(N3CCNC=N3)cc2)C(=O)O1)c1ccc(Cl)s1 [Compound 109-HCl],Aqueous Solubility,physchem,6 mM
O=C(NC[C@H]1CN(c2ccc(N3CCNC=N3)cc2)C(=O)O1)c1ccc(Cl)s1 [Compound 109],2xPT (uM) Coagulometer,[1],0.44 µM
same,Inhibition of thrombus formation (%),[2]; [3],73%
same,Inhibition of thrombus formation (%),[2]; [4],78%
same,Ki,human FXa,4.37 nM
same,Prolongation of bleeding time (X-fold),rat tail bleeding time; dose 2.5 mg/kg,2.5 X-fold
same,Prolongation of bleeding time (X-fold),rat tail bleeding time; dose 5 mg/kg,4.0 X-fold
same,Prolongation of bleeding time (X-fold),rat tail bleeding time; dose 10 mg/kg,4.1 X-fold
same,2xPT (uM) Spectramax,citrated plasma,0.21 µM
CC1=NN(c2ccc(N3C[C@H](CNC(=O)c4ccc(Cl)s4)OC3=O)cc2)CCN1 [Compound 110],2xPT (uM) Coagulometer,[1],0.31 µM
same,Inhibition of thrombus formation (%),[2]; [3],45* %
same,Ki,human FXa; [5],2.07 nM
CCC1=NN(c2ccc(N3C[C@H](CNC(=O)c4ccc(Cl)s4)OC3=O)cc2)CCN1 [Compound 111],2xPT (uM) Coagulometer,[1],0.40 µM
same,Inhibition of thrombus formation (%),[2]; [3],17* %
same,Ki,human FXa; [5],18.9 nM
CN1C=NN(c2ccc(N3C[C@H](CNC(=O)c4ccc(Cl)s4)OC3=O)cc2)CC1 [Compound 112],2xPT (uM) Coagulometer,[1],4.26 µM
same,Inhibition of thrombus formation (%),[2]; [3],44* %
same,Ki,human FXa; [5],120 nM
CC1=NN(c2ccc(N3C[C@H](CNC(=O)c4ccc(Cl)s4)OC3=O)cc2)CCN1C [Compound 113],2xPT (uM) Coagulometer,[1],0.62 µM
same,Inhibition of thrombus formation (%),[2]; [3],12* %
same,Ki,human FXa; [5],29.3 nM
CN1C=NCCN1c1ccc(N2C[C@H](CNC(=O)c3ccc(Cl)s3)OC2=O)cc1 [Compound 114],2xPT (uM) Coagulometer,[1],0.50 µM
same,Inhibition of thrombus formation (%),[2]; [3],5* %
same,Ki,human FXa; [5],2.86 nM
O=C(NC[C@H]1CN(c2ccc(N3C=NOCC3)cc2)C(=O)O1)c1ccc(Cl)s1 [Compound 115],Inhibition of thrombus formation (%),[2]; [4],29%
same,Ki,human FXa; [5],84 nM
same,2xPT (uM) Spectramax,citrated plasma,1.49 µM
CC1=NOCCN1c1ccc(N2C[C@H](CNC(=O)c3ccc(Cl)s3)OC2=O)cc1 [Compound 116],2xPT (uM) Coagulometer,[1],3.51 µM
same,Inhibition of thrombus formation (%),[2]; [4],74%
same,Ki,human FXa; [5],23.2 nM
same,2xPT (uM) Spectramax,citrated plasma,0.71 µM
O=C(NC[C@H]1CN(c2ccc(N3CCON=C3C3CC3)cc2)C(=O)O1)c1ccc(Cl)s1 [Compound 117],Ki,human FXa; [5],101 nM
same,2xPT (uM) Spectramax,citrated plasma,2.2 µM
O=CN1CCN(c2ccc(N3C[C@H](CNC(=O)c4ccc(Cl)s4)OC3=O)cc2)C=N1 [Compound 118],2xPT (uM) Coagulometer,[1],9.38 µM
same,Inhibition of thrombus formation (%),[2]; [4],74%
same,Ki,human FXa; [5],132 nM
same,2xPT (uM) Spectramax,citrated plasma,4.88 µM
CC1=NN(C)CCN1c1ccc(N2C[C@H](CNC(=O)c3ccc(Cl)s3)OC2=O)cc1 [Compound 121],2xPT (uM) Coagulometer,[1],2.90 µM
same,Inhibition of thrombus formation (%),[2]; [4],51%
same,Ki,human FXa; [5],95.6 nM
same,2xPT (uM) Spectramax,citrated plasma,0.54 µM
